Values joined by “and” are separate entries in the source; they are usually repeats but may differ in a detail not shown here. Identical values can stand only once. “Also recorded” adds a separate entry of the source. Marks after values point to notes of the source that are not given here.
Tests used:
[1] = biological target: T1, EphrinB2-EphB2 (Homo sapiens, UniProt P29323); test: Octet tetramerization inhibition, immobilized human EphrinB2 binding to 50 nM soluble human EphB2
T1 construct: soluble human EphB1-His, EphB2-His, and EphB4-His ectodomains; commercially available human EphrinB1-Fc (EB1), EphrinB2-Fc (EB2), and EphrinB3-Fc (EB3) ectodomain proteins; purchased
T1 sequence (P29323 19-543 limits assumed): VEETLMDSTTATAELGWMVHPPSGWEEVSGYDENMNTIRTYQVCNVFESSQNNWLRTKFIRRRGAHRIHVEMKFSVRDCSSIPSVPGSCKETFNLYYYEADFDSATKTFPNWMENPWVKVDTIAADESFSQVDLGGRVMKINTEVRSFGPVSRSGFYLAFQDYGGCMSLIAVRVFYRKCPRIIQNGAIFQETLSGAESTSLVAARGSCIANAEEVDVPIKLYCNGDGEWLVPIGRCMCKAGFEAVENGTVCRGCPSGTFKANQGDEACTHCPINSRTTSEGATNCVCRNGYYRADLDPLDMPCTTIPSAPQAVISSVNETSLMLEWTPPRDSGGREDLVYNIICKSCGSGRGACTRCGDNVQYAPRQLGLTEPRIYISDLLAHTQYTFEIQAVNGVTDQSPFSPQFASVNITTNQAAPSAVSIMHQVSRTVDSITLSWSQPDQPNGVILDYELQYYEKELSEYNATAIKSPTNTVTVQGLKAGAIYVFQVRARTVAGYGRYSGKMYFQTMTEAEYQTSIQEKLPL

[2] = biological target: T2, EphrinB2-EphB1 (Homo sapiens, UniProt P54762); test: Octet 80 sec association/500 sec dissociation, immobilized human EphrinB2-Fc binding to soluble human EphB1-His; conditions: immobilized human EphrinB2, 25 nM soluble human EphB1; for EphB1 Inhibition Percent, Inhibition of Association ONLY: at 3.2 μM and 80 seconds; for EphB1 Inhibition Percent, Inhibition of Association-Dissociation: at 3.2 μM and 580 seconds
T2 construct: soluble human EphB1-His, EphB2-His, and EphB4-His ectodomains; commercially available human EphrinB1-Fc (EB1), EphrinB2-Fc (EB2), and EphrinB3-Fc (EB3) ectodomain proteins; purchased
T2 sequence (P54762 18-540 limits assumed): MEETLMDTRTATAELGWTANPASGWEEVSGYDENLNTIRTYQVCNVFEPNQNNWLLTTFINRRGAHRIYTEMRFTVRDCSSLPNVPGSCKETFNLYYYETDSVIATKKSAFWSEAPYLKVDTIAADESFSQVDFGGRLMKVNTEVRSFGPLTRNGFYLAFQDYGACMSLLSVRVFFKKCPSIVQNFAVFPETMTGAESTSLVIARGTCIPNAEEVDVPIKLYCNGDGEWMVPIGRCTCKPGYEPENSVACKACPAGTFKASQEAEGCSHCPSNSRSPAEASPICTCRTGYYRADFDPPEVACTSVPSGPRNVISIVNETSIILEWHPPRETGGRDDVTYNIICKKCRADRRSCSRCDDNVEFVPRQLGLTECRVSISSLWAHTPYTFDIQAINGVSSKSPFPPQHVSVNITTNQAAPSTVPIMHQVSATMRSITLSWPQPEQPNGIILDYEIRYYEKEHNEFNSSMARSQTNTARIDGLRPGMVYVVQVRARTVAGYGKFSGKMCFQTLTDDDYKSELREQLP
Experimental: (§1) In another experiment, whether certain A20 analogs might have specificity for different Eph receptors was tested. An Octet RED384 system was used to obtain biophysical ON-OFF binding data (association-dissociation) for the three different human EphrinB2-EphB1, EphrinB2-EphB2, and EphrinB2-EphB4 protein-protein interactions and to assess the effect of A20 chemicals on the binding kinetics.
(§2) FIGS. 72A-72C show three example Octet sensorgram response traces for the immobilized human EphrinB2 ectodomain protein binding to soluble forms of the human EphB1, EphB2, and EphB4 ectodomain proteins, in the absence or presence of an A20 chemical (buffer conditions are always PBSTD:PBS with 0.05% Tween-20, 1% DMSO, and +/− indicated chemical). After loading EphrinB2-Fc protein to Octet AHC biosensors, washing, and obtaining stable baseline measurements in the appropriate PBSTD (either with or without indicated chemical), the sensors are placed in its buffer that also contains the indicated soluble EphB protein for the association step (0-80″), and then returned to its buffer for the dissociation step (81″-580″). In each figure (FIGS. 72A-72C), a sensorgram run using 10 μM of the 2×HCl salt form of A20-I is compared to the no compound control run to exemplify the maximum level of reduced response signal typically obtained with a potent A20 chemical.
(§3) Because the response levels during the dissociation step plateau for the EphrinB2-EphB2 and EphrinB2-EphB1 interactions by the first 80″, AUCs were also calculated for run data encompassing the first 160″ of each experiment to account for both the 80″ association data (red asterisks) and the first 80″ of dissociation data (marked by green line and asterisks).
(§4) The selectivity of another A20 analog (a 3×HCL salt form of compound BQPB4) in comparison to previously tested compound, A20-1, was tested as described in Example 27 above.
(§5) Further to the experiments listed above, a series of dose-response experiments were conducted to determine the IC50 of a selected A20 chemical (A20-1) on the kinetics of human EphrinB2 ligand ectodomain protein binding to its cognate human EphB1, EphB2, and EphB4 receptor ectodomain proteins. FIG. 74A-74C are representative sensorgrams showing the effect of 0, 0.1, 0.2, 0.4, 0.8, 1.6, and 3.2 μM, concentrations of the 2×HCl salt of A20-I along with a 10 μM max standard (also A20-1) on three different Ephrin-EphB interactions (e.g., EphB1 in FIG. 74A, EphB2 in FIG. 74B and EphB4 in FIG. 74C). […] Additional IC50 values were determined at specific timepoints, at 75″ into the association step and at 55″ into the dissociation step (135″).
(§6) All absolute and relative IC50 values are provided in the Table 6 below, where absolute are based off the full binding sensorgram traces, and relative are based off of the max control traces.
(§7) In another experiment, the % inhibition for various A20 analog chemicals against the three different EphrinB2-EphB protein interactions was determined. Specifically, the percent inhibition for immobilized human EphrinB2-Fc binding to 25 nM soluble human EphB1-His (FIG. 76A, enlarged in FIG. 76D), EphB2-His (FIG. 76B, enlarged in FIG. 76E), and EphB4-His (FIG. 76C, enlarged in FIG. 76F) with 3511-I, 8009-9255, QTM-Br, A19, A19-NO2, and IM (all at 3.2 μM) was determined.

[3] = biological target: T1, EphrinB2-EphB2; test: Octet 80 sec association/500 sec dissociation, immobilized human EphrinB2-Fc binding to soluble human EphB2-His; conditions: immobilized human EphrinB2, 25 nM soluble human EphB2; for EphB2 Inhibition Percent, Inhibition of Association ONLY: at 3.2 μM and 80 seconds; for EphB2 Inhibition Percent, Inhibition of Association-Dissociation: at 3.2 μM and 580 seconds
Experimental: as §1, §2, §3, §4, §5, §6, §7

[4] = biological target: T3, EphrinB2-EphB4 (Homo sapiens, UniProt P54760); test: Octet 80 sec association/500 sec dissociation, immobilized human EphrinB2-Fc binding to soluble human EphB4-His; conditions: immobilized human EphrinB2, 25 nM soluble human EphB4; for EphB4 Inhibition Percent, Inhibition of Association ONLY: at 3.2 μM and 80 seconds; for EphB4 Inhibition Percent, Inhibition of Association-Dissociation: at 3.2 μM and 580 seconds
T3 construct: soluble human EphB1-His, EphB2-His, and EphB4-His ectodomains; commercially available human EphrinB1-Fc (EB1), EphrinB2-Fc (EB2), and EphrinB3-Fc (EB3) ectodomain proteins; purchased
T3 sequence (P54760 16-539 limits assumed): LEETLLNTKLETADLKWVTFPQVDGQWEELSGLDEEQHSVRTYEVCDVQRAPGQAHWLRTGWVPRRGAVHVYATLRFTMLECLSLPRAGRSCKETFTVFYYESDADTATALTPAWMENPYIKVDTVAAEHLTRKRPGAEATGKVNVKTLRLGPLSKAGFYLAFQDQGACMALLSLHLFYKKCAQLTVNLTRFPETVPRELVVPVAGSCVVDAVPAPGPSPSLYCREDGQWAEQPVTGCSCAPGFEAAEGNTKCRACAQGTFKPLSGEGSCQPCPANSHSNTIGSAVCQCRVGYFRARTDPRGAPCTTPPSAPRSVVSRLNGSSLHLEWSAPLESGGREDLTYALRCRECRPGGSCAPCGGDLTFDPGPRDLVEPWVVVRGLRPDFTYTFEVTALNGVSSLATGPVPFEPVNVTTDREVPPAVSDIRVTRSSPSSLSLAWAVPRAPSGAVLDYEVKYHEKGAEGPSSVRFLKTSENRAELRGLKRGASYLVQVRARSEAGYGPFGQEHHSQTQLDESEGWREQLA
Experimental: as §1, §2, §3, §4, §5, §6, §7

[5] = Absolute AUC/IC50, Table A, EphrinB2-EphB2
[6] = Absolute Association IC50 (300 sec), Table A, EphrinB2-EphB2
[7] = Absolute Dissociation IC50 (450 sec), Table A, EphrinB2-EphB2
[8] = Relative AUC/IC50, Table A, EphrinB2-EphB2, compound 7: association only
[9] = Relative Association IC50 (300 sec), Table A, EphrinB2-EphB2
[10] = Relative Dissociation IC50 (450 sec), Table A, EphrinB2-EphB2
[11] = tetramerization inhibitor IC50 (relative), association step, surmountable tetramer

SMILES	IC50 [1, 5]	IC50 [1, 6] [µM]	IC50 [1, 7] [µM]	IC50 [1, 8]	IC50 [1, 9] [µM]	IC50 [1, 10]	EphB1 Inhibition Percent, Inhibition of Association ONLY [2]	EphB1 Inhibition Percent, Inhibition of Association-Dissociation [2]	EphB2 Inhibition Percent, Inhibition of Association ONLY [3]	EphB2 Inhibition Percent, Inhibition of Association-Dissociation [3]	EphB4 Inhibition Percent, Inhibition of Association ONLY [4]	tetramerization inhibitor activity [1]	EphB4 Inhibition Percent, Inhibition of Association-Dissociation [4]	IC50 [1, 11] [µM]	disruption of unsurmountable tetramer ([1]; 0.8-3.2 μM, listed as A19-L)
O=[N+]([O-])c1cc(CN2CCS(=O)(=O)CC2)c2cccnc2c1O [Compound 21, 4-((8-hydroxy-7-nitroquinolin-1-ium-5-yl)methyl)thiomorpholin-4-ium 1,1-dioxide chloride]	1.15 µM and 1.95 µM	1.74	1.7	~1 µM and 0.89 µM	0.91	1.07 µM and 1 µM	24.0% and 23.8%	36.0% and 28.9%	36.7% and 57.0%	51.7% and 69.2%	0% and 4.3%				
Oc1ccc(CN2CCN(c3ccc(C(F)(F)F)cc3)CC2)c2cccnc12 [Compound 103, 5-((4-(4-(trifluoromethyl)phenyl)piperazin-1-yl)methyl)quinolin-8-ol]							16.3%	33.8%	10.5%	27.6%	0*%	eliminated the activity	11.4%		
Oc1ccc(CN2CCN(c3ccc(Br)cn3)CC2)c2cccnc12 [Compound 34, 5-((4-(5-bromopyridin-2-yl)piperazin-1-ium-1-yl)methyl)-8-hydroxyquinolin-1-ium chloride]		2.82	2.63	1.7 µM	2.09		46.4%	58.6%	69.4%	81.6%	20.9%		36.9%		
OCc1ccc2c(CN3CCOCC3)ccc(O)c2n1 [Compound 12, 2-(hydroxymethyl)-5-(morpholinomethyl)quinolin-8-ol]	> 3.2 µM	> 3.2	> 3.2	> 3.2 µM	2.75	1.48 µM	17.4%	17.4%	48.1%	48.1%	11.0%		11.0%	~3	
O=C(c1ccc(O)c2ncccc12)N1CCOCC1 [Compound 53, (8-hydroxyquinolin-5-yl)(morpholino)methanone]	2.82 µM	3.02	2.34	1.86 µM	1.95	1.62 µM		38.7% and 26.3%		65.3% and 40.6%			16.8% and 12.5%	~1.6	slight ability to disrupt the unsurmountable tetramer; also recorded: able to inhibit a small amount of the EphrinB2-EphB2 unsurmountable tetramer
COc1ccc2[nH]cc(C(=O)N3CCN(c4ccc(Br)cc4)CC3)c2c1 [Compound 65, (4-(4-bromophenyl)piperazin-1-yl)(5-methoxy-1H-indol-3-yl)methanone]	> 1.6 µM	> 1.6	> 1.6	> 1.6 µM	> 1.6	> 1.6 µM	22.2%	28.6%	5.6%	46.4%	20.2%		19.0%		

From US20260374739A1, “SMALL MOLECULAR WEIGHT CHEMICAL COMPOUND TO ANTAGONIZE EPH-EPHRIN TETRAMERIZATION AND INHIBIT BIDIRECTIONAL SIGNALING” (THE BOARD OF REGENTS OF THE UNIVERSITY OF TEXAS SYSTEM, priority 2022, published 2026)
